Assay results published in PubChem BioAssay AID2060490 (Molecular Pharmacology Branch, DTP, NCI, 2025).
pIC50: −log10 of the molar value.

Tested on: 885512-296-R-J2-PDC complex spheroid viability
Assay: Anticancer human tumor 885512-296-R-J2-PDC patient-derived breast carcinoma cell line growth inhibition [GQUAD]
Settings: for pIC50: curve of first compound; for viability, T/C: stronger effect = lower value
Text: DNA G-quadruplex Stabilizer Agents in Combinations in Complex Spheroids
A high-throughput screen of multi-cell type tumor spheroids was designed to identify active combinations of DNA G-quadruplex stabilizer agents and targeted small molecules. Complex spheroids include a stromal component modeled by human endothelial cells (HUVEC) and fibroblasts modeled by human mesenchymal stem cells (MSCs). The concentration ranges selected for each drug and investigational agent were based upon clinically achievable concentrations if the clinical Cmax of the agent was known.
Compounds. The drugs and investigational agents: pidnarulex (CX-5461; NSC782164), APTO-253 (NSC789042), BRACO-19 (NSC847499), peposertib (NSC802822), ceralasertib (NSC780249), elimusertib (NSC800525), camonsertib (NSC841442), AZD-1390 (NSC803789), olaparib (NSC753686), talazoparib (NSC767125), ART-558 (NSC835418), sotorasib (NSC818433), MRTX-1133 (NSC836407), SN-38 (NSC673596), topotecan (NSC609699), etoposide (NSC141540), doxorubicin (NSC123127), gemcitabine (NSC613327), 5-fluorouracil (NSC19893), paclitaxel (NSC125973), vemurafenib (NSC761431), panobinostat (NSC761190), R-306465 (JNJ-16241199; NSC773264), adavosertib (NSC754352), TP-3654 (NSC805149), carboplatin (NSC241240), KSQ-4279 (NSC840948), and staurosporine (NSC755774) were obtained from the National Cancer Institute (NCI) Developmental Therapeutics Program Chemical Repository (34). The FDA-approved anticancer drug set is available from the NCI Developmental Therapeutics Program. […] The stock solutions were prepared in dimethyl sulfoxide (DMSO, Sigma-Aldrich, St. Louis, MO, cat. D2650) at 800-fold the tested concentration and stored at -70 degrees C prior to their use. All drugs and investigational agents were tested over a range starting from a high concentration at or near the clinical Cmax and decreasing in half-log increments. If the clinical Cmax for an agent had not been determined, the highest concentration tested was 10 microM.
2.3 Cell Culture. All cells were maintained in an incubator at 37 degrees C and 5% CO2 with 95% humidity. The PDC lines were cultured according to standard operating procedures established by the NCI PDMR. All PDCs were thawed and cultured in Matrigel-coated flasks prepared with a working solution of 1X Ham's F-12 nutrient mix, without supplementation (Invitrogen, cat. 11765054), 100 U/mL penicillin-streptomycin (Invitrogen, cat. 15140122), and 2.5% Matrigel (Corning Inc., cat. 354248) for the first three passages. The 857933-349-R-J2-PDC line was cultured in 6C/Colon 1B media, which includes advanced DMEM/F-12 (Thermo Fisher Scientific, cat. 12634028), 10 mM HEPES (Thermo Fisher Scientific, cat. 15630080), 1X GlutaMAX supplement (Thermo Fisher Scientific, cat. 35050061), 0.1 mg/mL primocin (InvivoGen, cat. ant-pm-2), 10% defined fetal bovine serum, heat inactivated (HyClone Laboratories Inc., cat. SH30070.03HI), 50% L-WRN conditioned media (ATCC, cat. CRL-3276), 1.25 mM N-Acetyl-L-cysteine (Sigma-Aldrich, cat. A9165), 10 mM nicotinamide (Sigma-Aldrich, cat. N0636), 1X B-27 supplement (Thermo Fisher Scientific, cat. 17504044), 1X N-2 supplement (Thermo Fisher Scientific, cat. 17502048), 10 microM Y-27632 dihydrochloride (Tocris Bioscience, cat. 1254), and 50 ng/mL human EGF recombinant protein (Thermo Fisher Scientific, cat. PHG0311). The 485176-168-R4-J1-PDC line was cultured in Panc media, which includes all 6C/Colon 1B media components plus 100 ng/mL human FGF-10 (Thermo Fisher Scientific, cat. 100-26), 500 nM SB-431542 (Selleckchem, cat. S1067), and gastrin (Tocris, cat. 3006).
[…]

[1] = second compound 0.0316 µM, first compound 0.0316 µM
[2] = second compound 0.0316 µM, first compound 0.1 µM
[3] = second compound 0.0316 µM, first compound 0.316 µM
[4] = second compound 0.0316 µM, first compound 1 µM
[5] = second compound 0.0316 µM, first compound 3.16 µM
[6] = second compound 0.0316 µM, first compound 10 µM
[7] = second compound 0.1 µM, first compound 0.0316 µM
[8] = second compound 0.1 µM, first compound 0.1 µM
[9] = second compound 0.1 µM, first compound 0.316 µM
[10] = second compound 0.1 µM, first compound 1 µM
[11] = second compound 0.1 µM, first compound 3.16 µM
[12] = second compound 0.1 µM, first compound 10 µM
[13] = second compound 0.316 µM, first compound 0.0316 µM
[14] = second compound 0.316 µM, first compound 0.1 µM
[15] = second compound 0.316 µM, first compound 0.316 µM
[16] = second compound 0.316 µM, first compound 1 µM
[17] = second compound 0.316 µM, first compound 3.16 µM
[18] = second compound 0.316 µM, first compound 10 µM
[19] = second compound 1 µM, first compound 0.0316 µM
[20] = second compound 1 µM, first compound 0.1 µM
[21] = second compound 1 µM, first compound 0.316 µM
[22] = second compound 1 µM, first compound 1 µM
[23] = second compound 1 µM, first compound 3.16 µM
[24] = second compound 1 µM, first compound 10 µM
[25] = second compound 3.16 µM, first compound 0.0316 µM
[26] = second compound 3.16 µM, first compound 0.1 µM
[27] = second compound 3.16 µM, first compound 0.316 µM
[28] = second compound 3.16 µM, first compound 1 µM
[29] = second compound 3.16 µM, first compound 3.16 µM
[30] = second compound 3.16 µM, first compound 10 µM
[31] = second compound 10 µM, first compound 0.0316 µM
[32] = second compound 10 µM, first compound 0.1 µM
[33] = second compound 10 µM, first compound 0.316 µM
[34] = second compound 10 µM, first compound 1 µM
[35] = second compound 10 µM, first compound 3.16 µM
[36] = second compound 10 µM, first compound 10 µM
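Note: spheroids exposed to the compounds for one week.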
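Throughout, for viability, T/C: percent of tumor spheroid viability relative to DMSO vehicle control wells.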

C#Cc1c(F)ccc2cc(O)cc(-c3ncc4c(N5CC6CCC(C5)N6)nc(OCC56CCCN5CC(F)C6)nc4c3F)c12 (stereo unspecified) + Cc1[nH]c2ccc(F)cc2c1-c1nc2c3cccnc3c3ncccc3c2[nH]1
pIC50 (second compound 0.0316 µM): 5.80
pIC50 (second compound 0.1 µM): 5.84
pIC50 (second compound 0.316 µM): 5.84
pIC50 (second compound 1 µM): 6.41
pIC50 (second compound 3.16 µM): > 7.50
pIC50 (second compound 10 µM): > 7.50
viability, T/C [1]: 109%
viability, T/C [2]: 92.7%
viability, T/C [3]: 94.5%
viability, T/C [4]: 73.4%
viability, T/C [5]: 13.6%
viability, T/C [6]: 18.1%
viability, T/C [7]: 103%
viability, T/C [8]: 90.8%
viability, T/C [9]: 95%
viability, T/C [10]: 67.7%
viability, T/C [11]: 8.04%
viability, T/C [12]: 17.1%
viability, T/C [13]: 88.6%
viability, T/C [14]: 87.4%
viability, T/C [15]: 82.3%
viability, T/C [16]: 67.5%
viability, T/C [17]: 10.2%
viability, T/C [18]: 16.4%
viability, T/C [19]: 52.9%
viability, T/C [20]: 52.9%
viability, T/C [21]: 54.3%
viability, T/C [22]: 35.6%
viability, T/C [23]: 1.25%
viability, T/C [24]: 1.01%
viability, T/C [25]: 2.98%
viability, T/C [26]: 2.55%
viability, T/C [27]: 4.13%
viability, T/C [28]: 1.7%
viability, T/C [29]: 0.26%
viability, T/C [30]: 0.33%
viability, T/C [31]: 1.35%
viability, T/C [32]: 1.38%
viability, T/C [33]: 1.82%
viability, T/C [34]: 1.42%
viability, T/C [35]: 0.24%
viability, T/C [36]: 0.41%

CCCS(=O)(=O)Nc1ccc(F)c(C(=O)c2c[nH]c3ncc(-c4ccc(Cl)cc4)cc23)c1F + CN(C)c1ccc(Nc2c3ccc(NC(=O)CCN4CCCC4)cc3nc3cc(NC(=O)CCN4CCCC4)ccc23)cc1
pIC50 (second compound 0.0316 µM): 5.09
pIC50 (second compound 0.1 µM): 5.10
pIC50 (second compound 0.316 µM): 5.07
pIC50 (second compound 1 µM): 5.17
pIC50 (second compound 3.16 µM): 5.43
pIC50 (second compound 10 µM): > 7.50
viability, T/C [1]: 105%
viability, T/C [2]: 90%
viability, T/C [3]: 109%
viability, T/C [4]: 104%
viability, T/C [5]: 106%
viability, T/C [6]: 38.9%
viability, T/C [7]: 101%
viability, T/C [8]: 119%
viability, T/C [9]: 124%
viability, T/C [10]: 117%
viability, T/C [11]: 89%
viability, T/C [12]: 39.8%
viability, T/C [13]: 118%
viability, T/C [14]: 102%
viability, T/C [15]: 111%
viability, T/C [16]: 104%
viability, T/C [17]: 104%
viability, T/C [18]: 40.7%
viability, T/C [19]: 95%
viability, T/C [20]: 102%
viability, T/C [21]: 103%
viability, T/C [22]: 94.1%
viability, T/C [23]: 119%
viability, T/C [24]: 21.9%
viability, T/C [25]: 117%
viability, T/C [26]: 104%
viability, T/C [27]: 126%
viability, T/C [28]: 111%
viability, T/C [29]: 57.6%
viability, T/C [30]: 6.03%
viability, T/C [31]: 17.6%
viability, T/C [32]: 16.4%
viability, T/C [33]: 15.7%
viability, T/C [34]: 14.2%
viability, T/C [35]: 8.35%
viability, T/C [36]: 1.3%

C=CC(=O)N1CCN(c2nc(=O)n(-c3c(C)ccnc3C(C)C)c3nc(-c4c(O)cccc4F)c(F)cc23)C(C)C1 (stereo unspecified) + Cc1[nH]c2ccc(F)cc2c1-c1nc2c3cccnc3c3ncccc3c2[nH]1
pIC50 (second compound 0.0316 µM): < 5.00
pIC50 (second compound 0.1 µM): < 5.00
pIC50 (second compound 0.316 µM): < 5.00
pIC50 (second compound 1 µM): < 5.00
pIC50 (second compound 3.16 µM): > 7.50
pIC50 (second compound 10 µM): > 7.50
viability, T/C [1]: 122%
viability, T/C [2]: 91%
viability, T/C [3]: 84.7%
viability, T/C [4]: 106%
viability, T/C [5]: 111%
viability, T/C [6]: 96.3%
viability, T/C [7]: 118%
viability, T/C [8]: 96.2%
viability, T/C [9]: 97.4%
viability, T/C [10]: 102%
viability, T/C [11]: 103%
viability, T/C [12]: 93.4%
viability, T/C [13]: 92.9%
viability, T/C [14]: 103%
viability, T/C [15]: 102%
viability, T/C [16]: 102%
viability, T/C [17]: 91.9%
viability, T/C [18]: 88.8%
viability, T/C [19]: 78.9%
viability, T/C [20]: 79.1%
viability, T/C [21]: 95.7%
viability, T/C [22]: 90%
viability, T/C [23]: 77.3%
viability, T/C [24]: 72.1%
viability, T/C [25]: 30.6%
viability, T/C [26]: 22.9%
viability, T/C [27]: 21.2%
viability, T/C [28]: 31.2%
viability, T/C [29]: 32.9%
viability, T/C [30]: 27.2%
viability, T/C [31]: 1.88%
viability, T/C [32]: 1.76%
viability, T/C [33]: 2.07%
viability, T/C [34]: 3.47%
viability, T/C [35]: 6.47%
viability, T/C [36]: 3.97%
